Experimental data: patent US20260355094A1, “COMBINATION OF AN ORGANOSILICON COMPOUND WITH A CROSSLINKED GLYCOSAMINOGLUCAN FOR PREVENTING AND REPAIRING CUTANEOUS AGEING” (LABORATOIRES FILL-MED MANUFACTURING, priority 2022, published 2026)

What was measured:
[1] = test system: hyaluronan synthase type 2 (HAS2); settings: in combination with resveratrol; human skin fibroblasts; cited from earlier work
collagen type I = settings: in combination with resveratrol; human skin fibroblasts; cited from earlier work
elastin = settings: in combination with resveratrol; human skin fibroblasts; cited from earlier work
fibroblasts = experiment: Contractile force of fibroblasts in equivalent dermis (Glassbox system); type: cell-based; settings: 2.5 ng/ml, positive contraction control
Method: AFU+Si was tested to evaluate the effect on contractile force of fibroblasts in a Glassbox system, when compared to Si and AFU.
An equivalent dermis was developed in a culture box consisting of eight rectangular tanks. In each tank, two flexible blades were plunged, the lower parts of which were made up of grids on which the equivalent dermis clang during its polymerization. The equivalent dermis developed between the two blades to result in a rectangular shape slightly narrowed in the center.
Under the influence of the contraction forces developed by fibroblasts, the blades were deformed. Their deformation was measured in real time using optical fibers and adapted software. The deformation was proportional to the force developed within the equivalent dermis.
Prior to the test for contractile force, different concentrations of products diluted in cellular culture medium were tested for cellular viability. Among these, the following concentrations were chosen for the contractile force test: 0.005%, 0.05%, 0.0005% and 0.0025%.

Row | Compound | expression of hyaluronan synthase type 2 (HAS2) gene [1] | expression of collagen type I gene (collagen type I) | expression of elastin gene (elastin) | contractile forces (fibroblasts)
1 | C[SiH2]O.O=C[C@@H](O)[C@@H](O)[C@H](O)[C@H](O)C(=O)O [methylsilanol mannuronate] | promoting the expression | promoting the expression | promoting the expression | –
2 | TGFβ1: used as a positive contraction control | – | – | – | significant increase in contractile forces
